Measurements published in patent US11970513B2, “Advanced glycation end product analogues” (Phytoquest Limited, priority 2012, dated 2024).
pIC50: −log10 of the molar value. Like-named read-outs stand apart in the source and are kept apart here.

Legend:
β-glucuronidase [1] = target: T1, β-glucuronidase (Bos taurus, UniProt A3KMY8); experiment: Glycosidase assay, β-glucuronidase (bovine liver); assay type: biochemical; conditions: for inhibition at 200 µM: read-out: percentage inhibition
T1 sequence (A3KMY8 1-652): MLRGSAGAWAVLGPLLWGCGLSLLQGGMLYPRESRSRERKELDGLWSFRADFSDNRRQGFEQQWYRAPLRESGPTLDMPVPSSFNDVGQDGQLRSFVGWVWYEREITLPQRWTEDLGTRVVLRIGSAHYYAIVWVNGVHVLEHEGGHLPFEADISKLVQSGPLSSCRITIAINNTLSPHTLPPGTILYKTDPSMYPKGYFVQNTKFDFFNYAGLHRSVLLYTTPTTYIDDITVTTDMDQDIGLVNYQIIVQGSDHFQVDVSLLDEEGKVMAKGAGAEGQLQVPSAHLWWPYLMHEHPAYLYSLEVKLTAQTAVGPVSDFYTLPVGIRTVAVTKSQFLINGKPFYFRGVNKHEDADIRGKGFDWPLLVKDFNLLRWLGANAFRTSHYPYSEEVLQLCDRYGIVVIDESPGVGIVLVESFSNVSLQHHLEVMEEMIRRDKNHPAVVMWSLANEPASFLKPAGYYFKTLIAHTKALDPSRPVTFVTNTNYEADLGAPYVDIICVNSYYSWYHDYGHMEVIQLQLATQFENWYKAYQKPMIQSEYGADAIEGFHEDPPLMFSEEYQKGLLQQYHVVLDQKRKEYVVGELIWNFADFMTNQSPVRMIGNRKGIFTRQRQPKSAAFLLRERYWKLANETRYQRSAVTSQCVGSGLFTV
Method: (§1) All enzymes and para-nitrophenyl substrates were purchased from Sigma, with the exception of beta-mannosidase which came from Megazyme. Enzymes were assayed at 27° C. in 0.1M citric acid/0.2M disodium hydrogen phosphate buffers at the optimum pH for the enzyme. The incubation mixture consisted of 10 μl enzyme solution, 10 μl of 1 mg/ml aqueous solution of sample and 50 μl of the appropriate 5 mM para-nitrophenyl substrate made up in buffer at the optimum pH for the enzyme. The reactions were stopped by addition of 70 μl 0.4M glycine (pH 10.4) during the exponential phase of the reaction, which had been determined at the beginning using uninhibited assays in which water replaced inhibitor. Final absorbances were read at 405 nm using a Versamax microplate reader (Molecular Devices). Assays were carried out in triplicate, and the values given are means of the three replicates per assay. The method was carried out as described in Watson et al. (1997) Phytochemistry 46 (2): 255-259.

glycogen phosphorylase b = target: T2, glycogen phosphorylase b (Oryctolagus cuniculus, UniProt P00489); experiment: Glycogen phosphorylase (GPb) activity; assay type: biochemical
T2 construct: purchased Sigma-Aldrich Fine Chemicals (St. Louis, Mo, USA)
T2 sequence (P00489 1-843): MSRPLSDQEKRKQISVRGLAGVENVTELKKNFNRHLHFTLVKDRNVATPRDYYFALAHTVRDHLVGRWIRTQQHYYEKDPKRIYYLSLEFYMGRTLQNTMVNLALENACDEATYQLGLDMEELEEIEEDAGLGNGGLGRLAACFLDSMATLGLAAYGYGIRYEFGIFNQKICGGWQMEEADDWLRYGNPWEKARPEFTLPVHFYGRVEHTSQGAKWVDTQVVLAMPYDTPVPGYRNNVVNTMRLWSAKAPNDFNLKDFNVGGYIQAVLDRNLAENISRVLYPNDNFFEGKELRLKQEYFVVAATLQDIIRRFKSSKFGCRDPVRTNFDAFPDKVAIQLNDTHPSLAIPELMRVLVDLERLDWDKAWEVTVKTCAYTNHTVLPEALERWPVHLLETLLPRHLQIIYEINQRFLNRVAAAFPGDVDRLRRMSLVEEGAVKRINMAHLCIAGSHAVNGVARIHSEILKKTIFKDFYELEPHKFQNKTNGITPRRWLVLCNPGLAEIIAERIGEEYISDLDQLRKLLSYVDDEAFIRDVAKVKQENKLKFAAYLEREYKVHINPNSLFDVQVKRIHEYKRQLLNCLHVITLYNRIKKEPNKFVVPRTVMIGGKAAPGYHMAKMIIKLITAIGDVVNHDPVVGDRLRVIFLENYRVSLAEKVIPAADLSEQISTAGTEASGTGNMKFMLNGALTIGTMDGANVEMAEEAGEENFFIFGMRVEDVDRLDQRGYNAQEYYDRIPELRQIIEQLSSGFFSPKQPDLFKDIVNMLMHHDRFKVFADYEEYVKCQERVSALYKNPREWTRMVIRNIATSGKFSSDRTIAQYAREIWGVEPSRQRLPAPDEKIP
Method: N2-beta-D-Fructopyranos-1-yl-Arginine and 1-Deoxy-1-(N-γ-aminobutyric acid)fructose were tested on glycogen phosphorylase and found to give weak inhibition (14.2 and 5.5% respectively at 400 μM.
Materials. Phosphoglucomutase, glucose-6-phosphate dehydrogenase, glucose-1,6-bisphosphate, glycogen phosphorylase b, α-D-glucose 1-phosphate dipotassium salt hydrate were purchased from Sigma-Aldrich Fine Chemicals (St. Louis, Mo, USA). Glycogen and caffeine were purchased from Nacalai Tesque (Kyoto, Japan). Other chemicals were from Wako Pure Chemical industries (Osaka, Japan).
Measurement of GPb activity. GPb activity was measured in the direction of glycogenolysis using 2 mg/mL glycogen as the substrate in 45 mM phosphate buffer at pH 6.8, containing 0.1 mM EDTA. […] The rate of enzyme-catalysed reaction in the medium can be followed as the increase in absorbance at 340 nm and 25° C. due to the formation of NADPH. GPb activity was also measured in the direction of glycogen synthesis using 25 mM glucose-1-P as substrate in a 250 mM Tris-malate buffer (pH 6.8), containing 5 mg/mL glycogen, 1 mM AMP, 15 mM cysteine, and glycogen phosphorylase b. […] Pi was measured by the Fiske-Subbarow method. The rate of enzyme-catalysed reaction in the medium was followed as the Increase in absorbance at 660 nm.

[2] = system: N-acetyl-β-D-glucosaminidase; experiment: Glycosidase assay, N-acetyl-β-D-glucosaminidase (bovine kidney); assay type: biochemical; conditions: for percentage inhibition: 0.2 mM, N-acetyl-β-D-glucosaminidase, Bovine kidney, negative value = stabilisation/promotion; for pIC50: bovine hexosaminidase, read-out: IC50 against the bovine hexosaminidase
Method: as §1

β-D-glucosidase = experiment: Glycosidase assay, β-D-glucosidase (almond); assay type: biochemical; conditions: 0.2 mM, Almond (Prunus sp.), negative value = stabilisation/promotion
Method: as §1

α-D-galactosidase = target: T3, α-D-galactosidase (Coffea arabica, UniProt Q42656); experiment: Glycosidase assay, α-D-galactosidase (green coffee bean); assay type: biochemical; conditions: 0.2 mM, Green coffee bean (Coffea sp.), negative value = stabilisation/promotion, read-out: percentage inhibition
T3 construct: purchased Sigma
T3 sequence (Q42656 16-378): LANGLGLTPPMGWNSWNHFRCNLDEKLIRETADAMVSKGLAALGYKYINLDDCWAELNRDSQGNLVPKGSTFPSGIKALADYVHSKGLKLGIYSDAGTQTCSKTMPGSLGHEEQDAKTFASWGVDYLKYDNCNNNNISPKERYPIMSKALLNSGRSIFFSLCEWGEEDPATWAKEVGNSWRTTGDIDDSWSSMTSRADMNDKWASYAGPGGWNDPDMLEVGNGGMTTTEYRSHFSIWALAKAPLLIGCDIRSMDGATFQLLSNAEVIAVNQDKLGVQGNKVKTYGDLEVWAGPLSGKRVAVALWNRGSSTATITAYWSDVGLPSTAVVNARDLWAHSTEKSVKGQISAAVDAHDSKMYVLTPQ
Method: as §1

α-L-fucosidase = target: T4, α-L-fucosidase (Bos taurus, UniProt Q2KIM0); experiment: Glycosidase assay, α-L-fucosidase (bovine kidney); assay type: biochemical; conditions: 0.2 mM, negative value = stabilisation/promotion, read-out: percentage inhibition
T4 construct: purchased Sigma
T4 sequence (Q2KIM0 23-468): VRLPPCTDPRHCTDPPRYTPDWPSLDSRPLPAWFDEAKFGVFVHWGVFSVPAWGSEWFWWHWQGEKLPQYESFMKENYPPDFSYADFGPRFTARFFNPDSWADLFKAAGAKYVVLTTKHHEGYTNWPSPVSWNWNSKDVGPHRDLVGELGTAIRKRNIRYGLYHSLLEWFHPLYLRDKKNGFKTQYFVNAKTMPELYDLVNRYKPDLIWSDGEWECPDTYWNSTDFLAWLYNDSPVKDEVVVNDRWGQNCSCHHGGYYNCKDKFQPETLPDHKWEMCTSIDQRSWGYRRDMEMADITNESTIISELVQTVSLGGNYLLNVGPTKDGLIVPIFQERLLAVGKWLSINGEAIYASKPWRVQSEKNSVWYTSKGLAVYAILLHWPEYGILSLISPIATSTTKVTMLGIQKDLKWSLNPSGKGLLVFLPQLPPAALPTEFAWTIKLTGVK
Method: as §1

α-D-glucosidase [3] = experiment: Glycosidase assay, α-D-glucosidase (Bacillus sterothermophilus); assay type: biochemical; conditions: 0.2 mM, negative value = stabilisation/promotion
Method: as §1

α-D-giucosidase = target: T5, α-D-giucosidase (Saccharomyces cerevisiae, UniProt P53341); experiment: Glycosidase assay, α-D-glucosidase (Saccharomyces cerevisiae); assay type: biochemical; conditions: 0.2 mM, negative value = stabilisation/promotion, read-out: percentage inhibition
T5 construct: purchased Sigma
T5 sequence (P53341 whole entry): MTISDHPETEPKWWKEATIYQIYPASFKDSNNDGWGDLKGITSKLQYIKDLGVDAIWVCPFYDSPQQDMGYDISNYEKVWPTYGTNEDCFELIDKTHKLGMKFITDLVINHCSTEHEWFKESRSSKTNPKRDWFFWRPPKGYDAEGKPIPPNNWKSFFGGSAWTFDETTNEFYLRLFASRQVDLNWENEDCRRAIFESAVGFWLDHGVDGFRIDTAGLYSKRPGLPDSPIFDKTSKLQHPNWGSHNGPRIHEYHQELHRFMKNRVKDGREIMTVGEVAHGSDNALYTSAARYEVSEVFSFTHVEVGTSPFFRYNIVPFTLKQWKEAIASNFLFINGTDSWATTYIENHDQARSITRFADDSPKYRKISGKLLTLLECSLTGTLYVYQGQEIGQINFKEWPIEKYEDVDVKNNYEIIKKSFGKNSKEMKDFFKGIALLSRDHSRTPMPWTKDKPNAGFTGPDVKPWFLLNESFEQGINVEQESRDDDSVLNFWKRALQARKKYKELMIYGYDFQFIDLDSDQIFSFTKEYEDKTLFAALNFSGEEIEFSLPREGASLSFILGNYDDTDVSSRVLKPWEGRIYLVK
Method: as §1

β-D-mannosidase = experiment: Glycosidase assay, β-D-mannosidase (Cellullomonas fimi); assay type: biochemical; conditions: 0.2 mM, negative value = stabilisation/promotion
Method: as §1

Naringinase = experiment: Glycosidase assay, naringinase (Penicillium decumbens); assay type: biochemical; conditions: 0.2 mM, negative value = stabilisation/promotion
Method: as §1

Amyloglucosidase = target: T6, Amyloglucosidase (Aspergillus niger, UniProt P69328); experiment: Glycosidase assay, amyloglucosidase (Aspergillus niger); assay type: biochemical; conditions: 0.2 mM, negative value = stabilisation/promotion, read-out: percentage inhibition
T6 construct: purchased Sigma
T6 sequence (P69328 25-640): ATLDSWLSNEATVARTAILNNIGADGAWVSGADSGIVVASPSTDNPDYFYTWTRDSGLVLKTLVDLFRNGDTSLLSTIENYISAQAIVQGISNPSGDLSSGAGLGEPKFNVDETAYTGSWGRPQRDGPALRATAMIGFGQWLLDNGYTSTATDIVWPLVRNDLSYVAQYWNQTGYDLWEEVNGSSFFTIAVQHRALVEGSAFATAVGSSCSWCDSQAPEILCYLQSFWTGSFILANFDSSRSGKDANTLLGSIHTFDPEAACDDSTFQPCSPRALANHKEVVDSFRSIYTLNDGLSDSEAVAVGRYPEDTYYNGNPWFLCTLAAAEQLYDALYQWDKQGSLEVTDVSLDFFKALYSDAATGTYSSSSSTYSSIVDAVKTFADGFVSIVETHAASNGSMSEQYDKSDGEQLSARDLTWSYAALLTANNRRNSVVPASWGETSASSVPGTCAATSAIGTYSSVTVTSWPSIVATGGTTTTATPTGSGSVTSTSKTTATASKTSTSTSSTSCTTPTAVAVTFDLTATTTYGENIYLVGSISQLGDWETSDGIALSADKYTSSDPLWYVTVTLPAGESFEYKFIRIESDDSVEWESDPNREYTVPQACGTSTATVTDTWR
Method: as §1

α-D-mannosidase = target: T7, α-D-mannosidase (Canavalia ensiformis, UniProt C0HJB3); experiment: Glycosidase assay, α-D-mannosidase (jack bean); assay type: biochemical, Jack bean (Canavalia ensiformis); conditions: read-out: percentage inhibition
T7 construct: purchased Sigma
T7 sequence (C0HJB3 1-981): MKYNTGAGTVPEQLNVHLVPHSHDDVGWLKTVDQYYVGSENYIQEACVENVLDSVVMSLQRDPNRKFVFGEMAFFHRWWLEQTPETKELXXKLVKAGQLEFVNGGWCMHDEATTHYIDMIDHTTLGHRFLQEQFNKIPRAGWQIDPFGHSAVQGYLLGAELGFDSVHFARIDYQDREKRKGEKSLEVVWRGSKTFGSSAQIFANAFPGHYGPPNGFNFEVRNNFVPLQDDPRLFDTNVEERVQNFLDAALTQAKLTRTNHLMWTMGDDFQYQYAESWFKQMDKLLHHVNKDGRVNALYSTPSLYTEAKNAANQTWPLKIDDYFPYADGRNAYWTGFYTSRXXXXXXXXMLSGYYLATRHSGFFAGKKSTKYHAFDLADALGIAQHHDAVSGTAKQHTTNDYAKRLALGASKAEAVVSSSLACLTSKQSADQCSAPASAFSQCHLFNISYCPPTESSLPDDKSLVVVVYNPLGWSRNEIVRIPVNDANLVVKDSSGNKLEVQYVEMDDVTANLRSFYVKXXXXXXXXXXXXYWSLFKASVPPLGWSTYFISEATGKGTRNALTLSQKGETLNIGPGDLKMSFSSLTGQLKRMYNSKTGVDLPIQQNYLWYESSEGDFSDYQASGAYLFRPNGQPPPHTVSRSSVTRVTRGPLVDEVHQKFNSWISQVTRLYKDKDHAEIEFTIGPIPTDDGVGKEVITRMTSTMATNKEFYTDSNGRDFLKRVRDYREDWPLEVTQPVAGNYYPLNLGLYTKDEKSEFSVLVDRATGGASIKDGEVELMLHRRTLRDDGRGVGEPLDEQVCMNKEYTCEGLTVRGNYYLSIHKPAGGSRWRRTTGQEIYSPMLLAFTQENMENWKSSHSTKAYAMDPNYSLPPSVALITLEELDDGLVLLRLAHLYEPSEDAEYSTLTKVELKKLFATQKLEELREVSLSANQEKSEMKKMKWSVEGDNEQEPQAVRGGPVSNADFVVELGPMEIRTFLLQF
Method: as §1

β-glucuronidase [4] = target: T8, β-glucuronidase (Escherichia coli, UniProt P05804); experiment: Glycosidase assay, β-glucuronidase (E. coli); assay type: biochemical; conditions: 0.2 mM, negative value = stabilisation/promotion, read-out: percentage inhibition
T8 construct: purchased Sigma
T8 sequence (P05804 whole entry): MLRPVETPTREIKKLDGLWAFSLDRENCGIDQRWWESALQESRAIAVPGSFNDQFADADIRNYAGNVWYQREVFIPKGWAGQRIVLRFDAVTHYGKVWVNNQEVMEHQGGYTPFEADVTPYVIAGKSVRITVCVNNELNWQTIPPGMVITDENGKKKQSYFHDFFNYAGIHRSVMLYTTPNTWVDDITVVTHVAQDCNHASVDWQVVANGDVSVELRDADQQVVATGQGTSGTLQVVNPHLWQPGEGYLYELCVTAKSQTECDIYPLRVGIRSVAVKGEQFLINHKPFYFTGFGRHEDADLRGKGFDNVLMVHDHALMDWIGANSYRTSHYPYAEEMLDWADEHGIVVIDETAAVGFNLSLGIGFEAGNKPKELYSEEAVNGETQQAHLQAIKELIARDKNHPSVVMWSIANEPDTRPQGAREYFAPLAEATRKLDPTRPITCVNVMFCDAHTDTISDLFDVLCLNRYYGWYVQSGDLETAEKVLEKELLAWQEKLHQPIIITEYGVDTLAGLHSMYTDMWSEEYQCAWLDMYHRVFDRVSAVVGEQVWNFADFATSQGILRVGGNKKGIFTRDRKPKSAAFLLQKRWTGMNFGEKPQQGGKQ
Method: as §1

β-D-galactosidase = experiment: Glycosidase assay, β-D-galactosidase (bovine liver); assay type: biochemical; conditions: 0.2 mM, negative value = stabilisation/promotion
Method: as §1

[5] = target: T9, N-acetyl-β-D-hexosaminidase (Aspergillus oryzae, UniProt Q8J2T0); experiment: Glycosidase assay, N-acetyl-β-D-hexosaminidase (Aspergillus oryzae); assay type: biochemical; conditions: 0.2 mM, negative value = stabilisation/promotion, read-out: percentage inhibition
T9 construct: purchased Sigma
T9 sequence (Q8J2T0 97-600): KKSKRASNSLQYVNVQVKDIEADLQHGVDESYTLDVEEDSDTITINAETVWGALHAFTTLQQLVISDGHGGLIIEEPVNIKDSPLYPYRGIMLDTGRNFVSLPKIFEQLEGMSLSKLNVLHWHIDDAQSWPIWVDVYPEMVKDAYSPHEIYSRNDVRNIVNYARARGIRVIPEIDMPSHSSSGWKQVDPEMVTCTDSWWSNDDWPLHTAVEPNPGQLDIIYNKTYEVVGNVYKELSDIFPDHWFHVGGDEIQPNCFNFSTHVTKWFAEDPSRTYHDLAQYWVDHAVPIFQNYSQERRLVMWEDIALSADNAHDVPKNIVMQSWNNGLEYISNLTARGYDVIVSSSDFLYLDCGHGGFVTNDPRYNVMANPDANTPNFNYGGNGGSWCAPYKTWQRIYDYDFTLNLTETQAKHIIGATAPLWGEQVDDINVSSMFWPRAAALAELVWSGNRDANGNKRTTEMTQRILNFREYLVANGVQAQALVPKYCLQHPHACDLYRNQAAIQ
Method: as §1

α-D-glucosidase [6] = target: T10, α-D-glucosidase (Oryza sativa subsp. japonica, UniProt Q653V7); experiment: Glycosidase assay, α-D-glucosidase (rice); assay type: biochemical; conditions: 0.2 mM, Rice (Oryza saliva), negative value = stabilisation/promotion, read-out: percentage inhibition
T10 construct: purchased Sigma
T10 sequence (Q653V7 34-885): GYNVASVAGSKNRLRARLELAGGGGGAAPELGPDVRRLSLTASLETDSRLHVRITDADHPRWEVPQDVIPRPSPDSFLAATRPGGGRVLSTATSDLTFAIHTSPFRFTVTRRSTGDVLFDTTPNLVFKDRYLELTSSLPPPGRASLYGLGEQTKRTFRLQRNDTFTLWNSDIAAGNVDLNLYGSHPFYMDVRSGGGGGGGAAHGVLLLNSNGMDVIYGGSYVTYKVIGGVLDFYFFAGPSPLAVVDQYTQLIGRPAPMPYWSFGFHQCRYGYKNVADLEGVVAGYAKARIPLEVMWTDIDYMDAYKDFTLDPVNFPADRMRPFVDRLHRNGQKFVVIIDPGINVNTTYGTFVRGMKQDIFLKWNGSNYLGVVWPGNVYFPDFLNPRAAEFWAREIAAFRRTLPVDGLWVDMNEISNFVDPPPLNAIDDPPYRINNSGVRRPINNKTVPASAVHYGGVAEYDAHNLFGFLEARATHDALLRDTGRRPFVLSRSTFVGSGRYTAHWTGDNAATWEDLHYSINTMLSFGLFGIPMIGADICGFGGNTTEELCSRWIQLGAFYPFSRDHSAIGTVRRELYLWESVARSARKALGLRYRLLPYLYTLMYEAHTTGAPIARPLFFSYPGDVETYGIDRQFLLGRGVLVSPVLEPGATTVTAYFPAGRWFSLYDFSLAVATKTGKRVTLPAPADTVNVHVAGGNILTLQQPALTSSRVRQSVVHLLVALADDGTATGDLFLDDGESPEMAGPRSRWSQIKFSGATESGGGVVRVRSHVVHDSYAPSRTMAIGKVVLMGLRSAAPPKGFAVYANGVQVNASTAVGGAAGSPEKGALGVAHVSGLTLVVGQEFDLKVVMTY
Method: as §1

[7] = system: N-acetyl-β-D-glucosaminidase; experiment: Glycosidase assay, N-acetyl-β-D-glucosaminidase (jack bean); assay type: biochemical; conditions: 0.2 mM, negative value = stabilisation/promotion
Method: as §1

SMILES: O=C(O)CCCNCC1(O)OCC(O)C(O)C1O (stereo not shown) [1-Deoxy-1-(N-γ-aminobutyric acid)fructose]
- inhibition at 200 µM (β-glucuronidase [1]): -1.2%
- inhibition at 400 µM (glycogen phosphorylase b): 5.5%
- percentage inhibition [2]: 55.3%
- pIC50 [2]: 3.70
- percentage inhibition (β-D-glucosidase): −0.9%
- inhibition at 200 µM (α-D-galactosidase): -7.1%
- inhibition at 200 µM (α-L-fucosidase): -1.3%
- percentage inhibition (α-D-glucosidase [3]): 0.7%
- inhibition at 200 µM (α-D-giucosidase): -4.2%
- percentage inhibition (β-D-mannosidase): −10.3%
- percentage inhibition (Naringinase): 0.2%
- inhibition at 200 µM (Amyloglucosidase): -2.9%
- inhibition at 200 µM (α-D-mannosidase): -6.2%
- inhibition at 200 µM (β-glucuronidase [4]): -0.8%
- percentage inhibition (β-D-galactosidase): 1.3%
- inhibition at 200 µM [5]: -19.2%
- inhibition at 200 µM (α-D-glucosidase [6]): -4.2%
- percentage inhibition [7]: −6.3%

SMILES: N=C(N)NCCCC(NCC1(O)OCC(O)C(O)C1O)C(=O)O [N2-β-D-Fructopyranos-1-yl-Arginine, 5-carbamimidamido-2-{[(2,3,4,5-tetrahydroxytetrahydro-2H-pyran-2-yl)methyl]amino}pentanoic acid]
- pIC50 (β-glucuronidase [1]; bovine β-glucuronidase, read-out: IC50 against the bovine β-glucuronidase): 4.00
- inhibition at 200 µM (β-glucuronidase [1]): 85.2%
- inhibition at 400 µM (glycogen phosphorylase b): 14.2%
- percentage inhibition [2]: 88.5%
- pIC50 [2]: 5.11
- percentage inhibition (β-D-glucosidase): 7.6%
- inhibition at 200 µM (α-D-galactosidase): 3.4%
- inhibition at 200 µM (α-L-fucosidase): -9.3%
- percentage inhibition (α-D-glucosidase [3]): −1.7%
- inhibition at 200 µM (α-D-giucosidase): -1.4%
- percentage inhibition (β-D-mannosidase): −8.1%
- percentage inhibition (Naringinase): 4.1%
- inhibition at 200 µM (Amyloglucosidase): 15%
- inhibition at 200 µM (α-D-mannosidase; 0.2 mM, α-D-mannosidase, Jack bean (Canavalia ensiformis), negative value = stabilisation/promotion): 35.2%
- inhibition at 200 µM (β-glucuronidase [4]): -9%
- percentage inhibition (β-D-galactosidase): −3.9%
- inhibition at 200 µM [5]: -15.3%
- inhibition at 200 µM (α-D-glucosidase [6]): -6%
- percentage inhibition [7]: −0.8%
